Reference: the supplement of paper PMC10307832

Assays:
Experiment in all cases: relative viability (nuclei count vs DMSO), 5 days (fraction); higher = more cells survive
NCI-H1666 = test system: NCI-H1666
In short: (§1)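 The day after seeding in 1536-well plates, lung cancer cell lines were treated by pin tool with a single drug, or with a fixed anchor-drug dose together with five library-drug doses (not always all listed) in √10 steps. After 5 days, a combined fix-and-stain solution (final 0.05% Triton X-100, 1% formaldehyde, 1 ug/ml Hoechst) was added. Nuclei counted on 4× images gave relative viability as treated counts over vehicle counts, reported as the median of duplicate plates.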

NCI-H358 = test system: NCI-H358
In short: as §1

NCI-H661 = test system: NCI-H661
In short: as §1

SK-MES-1 = test system: SK-MES-1
In short: as §1

PC-3 [JPC-3] = test system: PC-3 [JPC-3]
In short: as §1

NCI-H596 = test system: NCI-H596
In short: as §1

HCC-15 = test system: HCC-15
In short: as §1

NCI-H1651 = test system: NCI-H1651
In short: as §1

UMC-11 = test system: UMC-11
In short: as §1

LXF-289 = test system: LXF-289
In short: as §1

BEN = test system: BEN
In short: as §1

NCI-H2087 = test system: NCI-H2087
In short: as §1

HCC-78 = test system: HCC-78
In short: as §1

NCI-H322M = test system: NCI-H322M
In short: as §1

NCI-H650 = test system: NCI-H650
In short: as §1

NCI-H1944 = test system: NCI-H1944
In short: as §1

LCLC-97TM1 = test system: LCLC-97TM1
In short: as §1

LU99A = test system: LU99A
In short: as §1

NCI-H838 = test system: NCI-H838
In short: as §1

LC-2-ad = test system: LC-2-ad
In short: as §1

LK-2 = test system: LK-2
In short: as §1

## Oc1nc(-c2ccc(C(F)(F)F)cc2)nc2c1CSCC2 [XAV939] + C[C@]1(O)C[C@@H](c2nc(-c3ccc4ccc(-c5ccccc5)nc4c3)c3c(N)nccn32)C1 [Linsitinib] (partner 1 µM)
NCI-H1666; first compound 0.08 µM
  relative viability: 0.816
NCI-H1666; first compound 0.253 µM
  relative viability: 0.598
NCI-H1666; first compound 0.8 µM
  relative viability: 0.712
NCI-H1666; first compound 2.53 µM
  relative viability: 0.568
NCI-H358; first compound 0.08 µM
  relative viability: 0.832
NCI-H358; first compound 0.253 µM
  relative viability: 0.551
NCI-H358; first compound 0.8 µM
  relative viability: 0.655
NCI-H358; first compound 2.53 µM
  relative viability: 0.558
NCI-H661; first compound 0.08 µM
  relative viability: 0.653
NCI-H661; first compound 0.253 µM
  relative viability: 0.568
NCI-H661; first compound 0.8 µM
  relative viability: 0.649
NCI-H661; first compound 2.53 µM
  relative viability: 0.35
SK-MES-1; first compound 0.08 µM
  relative viability: 1.1
SK-MES-1; first compound 0.253 µM
  relative viability: 0.896
SK-MES-1; first compound 0.8 µM
  relative viability: 1.03
SK-MES-1; first compound 2.53 µM
  relative viability: 0.965
PC-3 [JPC-3]; first compound 0.08 µM
  relative viability: 0.916
PC-3 [JPC-3]; first compound 0.253 µM
  relative viability: 0.863
PC-3 [JPC-3]; first compound 0.8 µM
  relative viability: 1
PC-3 [JPC-3]; first compound 2.53 µM
  relative viability: 0.874
NCI-H596; first compound 0.08 µM
  relative viability: 1.09
NCI-H596; first compound 0.253 µM
  relative viability: 1.02
NCI-H596; first compound 0.8 µM
  relative viability: 1.03
NCI-H596; first compound 2.53 µM
  relative viability: 0.924
HCC-15; first compound 0.08 µM
  relative viability: 0.923
HCC-15; first compound 0.253 µM
  relative viability: 0.851
HCC-15; first compound 0.8 µM
  relative viability: 0.859
HCC-15; first compound 2.53 µM
  relative viability: 0.848
NCI-H1651; first compound 0.08 µM
  relative viability: 1.01
NCI-H1651; first compound 0.253 µM
  relative viability: 0.799
NCI-H1651; first compound 0.8 µM
  relative viability: 0.915
NCI-H1651; first compound 2.53 µM
  relative viability: 0.875
UMC-11; first compound 0.08 µM
  relative viability: 1.25
UMC-11; first compound 0.8 µM
  relative viability: 0.952
UMC-11; first compound 2.53 µM
  relative viability: 0.854
LXF-289; first compound 0.08 µM
  relative viability: 0.991
LXF-289; first compound 0.253 µM
  relative viability: 0.954
LXF-289; first compound 0.8 µM
  relative viability: 0.975
LXF-289; first compound 2.53 µM
  relative viability: 0.952
BEN; first compound 0.08 µM
  relative viability: 1.17
BEN; first compound 0.253 µM
  relative viability: 0.894
BEN; first compound 0.8 µM
  relative viability: 0.934
NCI-H2087; first compound 0.08 µM
  relative viability: 1.14
NCI-H2087; first compound 0.253 µM
  relative viability: 0.936
NCI-H2087; first compound 0.8 µM
  relative viability: 0.939
NCI-H2087; first compound 2.53 µM
  relative viability: 0.672
HCC-78; first compound 0.08 µM
  relative viability: 0.59
HCC-78; first compound 0.253 µM
  relative viability: 0.448
HCC-78; first compound 0.8 µM
  relative viability: 0.616
HCC-78; first compound 2.53 µM
  relative viability: 0.443
NCI-H322M; first compound 0.08 µM
  relative viability: 0.966
NCI-H322M; first compound 0.253 µM
  relative viability: 0.872
NCI-H322M; first compound 0.8 µM
  relative viability: 0.909
NCI-H322M; first compound 2.53 µM
  relative viability: 0.618
NCI-H650; first compound 0.08 µM
  relative viability: 1.13
NCI-H650; first compound 0.253 µM
  relative viability: 1.07
NCI-H650; first compound 0.8 µM
  relative viability: 0.911
NCI-H650; first compound 2.53 µM
  relative viability: 0.857
NCI-H1944; first compound 0.08 µM
  relative viability: 1.22
NCI-H1944; first compound 0.253 µM
  relative viability: 1.12
NCI-H1944; first compound 0.8 µM
  relative viability: 1.24
NCI-H1944; first compound 2.53 µM
  relative viability: 1.26
LCLC-97TM1; first compound 0.08 µM
  relative viability: 0.192
LCLC-97TM1; first compound 0.253 µM
  relative viability: 0.19
LCLC-97TM1; first compound 0.8 µM
  relative viability: 0.206
LCLC-97TM1; first compound 2.53 µM
  relative viability: 0.167
LU99A; first compound 0.08 µM
  relative viability: 0.556
LU99A; first compound 0.253 µM
  relative viability: 0.446
LU99A; first compound 0.8 µM
  relative viability: 0.505
LU99A; first compound 2.53 µM
  relative viability: 0.44
NCI-H838; first compound 0.08 µM
  relative viability: 1.02
NCI-H838; first compound 0.253 µM
  relative viability: 0.901
NCI-H838; first compound 0.8 µM
  relative viability: 0.839
NCI-H838; first compound 2.53 µM
  relative viability: 0.719
LC-2-ad; first compound 0.08 µM
  relative viability: 0.873
LC-2-ad; first compound 0.253 µM
  relative viability: 0.797
LC-2-ad; first compound 0.8 µM
  relative viability: 0.819
LC-2-ad; first compound 2.53 µM
  relative viability: 0.73
LK-2; first compound 0.08 µM
  relative viability: 0.514
LK-2; first compound 0.253 µM
  relative viability: 0.499
LK-2; first compound 0.8 µM
  relative viability: 0.42
LK-2; first compound 2.53 µM
  relative viability: 0.457

## Oc1nc(-c2ccc(C(F)(F)F)cc2)nc2c1CSCC2 [XAV939] + Cc1nc(NC(=O)N2CCC[C@H]2C(N)=O)sc1-c1ccnc(C(C)(C)C(F)(F)F)c1 [Alpelisib] (partner 2 µM)
NCI-H1666; first compound 0.08 µM
  relative viability: 0.87
NCI-H1666; first compound 0.253 µM
  relative viability: 0.63
NCI-H1666; first compound 0.8 µM
  relative viability: 0.721
NCI-H1666; first compound 2.53 µM
  relative viability: 0.591
NCI-H358; first compound 0.08 µM
  relative viability: 0.815
NCI-H358; first compound 0.253 µM
  relative viability: 0.671
NCI-H358; first compound 0.8 µM
  relative viability: 0.915
NCI-H358; first compound 2.53 µM
  relative viability: 0.591
NCI-H661; first compound 0.08 µM
  relative viability: 0.655
NCI-H661; first compound 0.253 µM
  relative viability: 0.621
NCI-H661; first compound 0.8 µM
  relative viability: 0.833
NCI-H661; first compound 2.53 µM
  relative viability: 0.492
SK-MES-1; first compound 0.08 µM
  relative viability: 0.994
SK-MES-1; first compound 0.253 µM
  relative viability: 0.912
SK-MES-1; first compound 0.8 µM
  relative viability: 0.911
SK-MES-1; first compound 2.53 µM
  relative viability: 0.757
PC-3 [JPC-3]; first compound 0.08 µM
  relative viability: 1
PC-3 [JPC-3]; first compound 0.253 µM
  relative viability: 0.962
PC-3 [JPC-3]; first compound 0.8 µM
  relative viability: 1.07
PC-3 [JPC-3]; first compound 2.53 µM
  relative viability: 0.962
NCI-H596; first compound 0.08 µM
  relative viability: 0.456
NCI-H596; first compound 0.253 µM
  relative viability: 0.587
NCI-H596; first compound 0.8 µM
  relative viability: 0.534
NCI-H596; first compound 2.53 µM
  relative viability: 0.493
HCC-15; first compound 0.08 µM
  relative viability: 1
HCC-15; first compound 0.253 µM
  relative viability: 0.939
HCC-15; first compound 0.8 µM
  relative viability: 0.925
HCC-15; first compound 2.53 µM
  relative viability: 0.946
NCI-H1651; first compound 0.08 µM
  relative viability: 0.979
NCI-H1651; first compound 0.253 µM
  relative viability: 0.841
NCI-H1651; first compound 0.8 µM
  relative viability: 0.978
NCI-H1651; first compound 2.53 µM
  relative viability: 0.891
UMC-11; first compound 0.08 µM
  relative viability: 1.2
UMC-11; first compound 0.8 µM
  relative viability: 0.971
UMC-11; first compound 2.53 µM
  relative viability: 0.64
LXF-289; first compound 0.08 µM
  relative viability: 1.04
LXF-289; first compound 0.253 µM
  relative viability: 0.996
LXF-289; first compound 0.8 µM
  relative viability: 1.01
LXF-289; first compound 2.53 µM
  relative viability: 1.01
BEN; first compound 0.08 µM
  relative viability: 1.08
BEN; first compound 0.253 µM
  relative viability: 0.921
BEN; first compound 0.8 µM
  relative viability: 1.01
NCI-H2087; first compound 0.08 µM
  relative viability: 1.24
NCI-H2087; first compound 0.253 µM
  relative viability: 0.914
NCI-H2087; first compound 0.8 µM
  relative viability: 1.09
NCI-H2087; first compound 2.53 µM
  relative viability: 0.889
HCC-78; first compound 0.08 µM
  relative viability: 0.35
HCC-78; first compound 0.253 µM
  relative viability: 0.248
HCC-78; first compound 0.8 µM
  relative viability: 0.375
HCC-78; first compound 2.53 µM
  relative viability: 0.273
NCI-H322M; first compound 0.08 µM
  relative viability: 0.844
NCI-H322M; first compound 0.253 µM
  relative viability: 0.656
NCI-H322M; first compound 0.8 µM
  relative viability: 0.741
NCI-H322M; first compound 2.53 µM
  relative viability: 0.718
NCI-H650; first compound 0.08 µM
  relative viability: 1.3
NCI-H650; first compound 0.253 µM
  relative viability: 0.959
NCI-H650; first compound 0.8 µM
  relative viability: 1.15
NCI-H650; first compound 2.53 µM
  relative viability: 0.864
NCI-H1944; first compound 0.08 µM
  relative viability: 0.939
NCI-H1944; first compound 0.253 µM
  relative viability: 0.765
NCI-H1944; first compound 0.8 µM
  relative viability: 0.751
NCI-H1944; first compound 2.53 µM
  relative viability: 0.786
LCLC-97TM1; first compound 0.08 µM
  relative viability: 0.256
LCLC-97TM1; first compound 0.253 µM
  relative viability: 0.232
LCLC-97TM1; first compound 0.8 µM
  relative viability: 0.252
LCLC-97TM1; first compound 2.53 µM
  relative viability: 0.243
LU99A; first compound 0.08 µM
  relative viability: 0.501
LU99A; first compound 0.253 µM
  relative viability: 0.579
LU99A; first compound 0.8 µM
  relative viability: 0.494
LU99A; first compound 2.53 µM
  relative viability: 0.4
NCI-H838; first compound 0.08 µM
  relative viability: 1.08
NCI-H838; first compound 0.253 µM
  relative viability: 0.849
NCI-H838; first compound 0.8 µM
  relative viability: 0.909
NCI-H838; first compound 2.53 µM
  relative viability: 0.604
LC-2-ad; first compound 0.08 µM
  relative viability: 0.901
LC-2-ad; first compound 0.253 µM
  relative viability: 0.711
LC-2-ad; first compound 0.8 µM
  relative viability: 0.848
LC-2-ad; first compound 2.53 µM
  relative viability: 0.804
LK-2; first compound 0.08 µM
  relative viability: 1.03
LK-2; first compound 0.253 µM
  relative viability: 1.02
LK-2; first compound 0.8 µM
  relative viability: 1.1
LK-2; first compound 2.53 µM
  relative viability: 0.923
